The values below come from patent US10591445B2, “Methods for analysis and resolution of preparations of dianhydrogalactitol and derivatives or analogs thereof” (Del Mar Pharmaceuticals (BC) Ltd., priority 2015, dated 2020).

Series [1] can be described thus: Solution stability of DAG sample solution (HPLC-ELSD). The conditions noted are these: 8 mg/mL in acetonitrile/water (85:15). The format is physicochemical. The protocol: The test sample solutions (nominal 8 mg/mL) are prepared as follows. The sample preparation for DAG drug substance or API can be as follows. Accurately weigh, in duplicate, about 80 mg of DAG API sample into clean 10 mL volumetric flasks. Dissolve DAG API sample in approximately 5 mL of diluent, diluted to volume with diluent, and mix. The sample preparation for DAG drug product (lyophilized powder, 40 mg/vial) can be as follows: Clean and remove the closure of the vial. Reconstitute the lyophilized vial with 5.0 mL diluent to yield an 8 mg/mL solution. Prepare samples in duplicate (using 2 vials). The sample solutions can be stored up to 48 hrs at 2-8° C. and 52 hrs at ambient laboratory conditions.
With respect to solution stability, the recovery of the aged solutions should be within 85%-115% of the initial assay. […]
The experimental approach for determining solution stability was as follows: For a standard solution, a dulcitol standard solution was prepared at 1.0% of DAG nominal conc. in one replicate and placed the solution under ambient laboratory conditions and refrigerated conditions (2-8° C.), respectively, using 1% Linearity standard solutions). […] For time points of less than 24 hours, solution stability is evaluated against fresh standards. The recovery of the aged solutions is evaluated. […] For time points of less than 24 hours, solution stability is evaluated against fresh standards.

Series [2] can be described thus: Solution stability of dulcitol standard solution (HPLC-ELSD). The format is physicochemical. As to conditions: for Assay / Concentration: standard solution. The procedure:
The standard solutions can be stored up to 48 hrs at 2-8° C. and can be stored up to 52 hrs at ambient laboratory condition. The standard solutions can be used to generate a standard curve as described further below.
With respect to solution stability, the recovery of the aged solutions should be within 85%-115% of the initial assay. The absolute difference should be no more than 0.2% for an impurity at ≤1.0%. For an impurity >1.0%, the result of the aged solution should be within 80%-120% of the original. No new impurities at ≥1.0% should be observed.
The experimental approach for determining solution stability was as follows: For a standard solution, a dulcitol standard solution was prepared at 1.0% of DAG nominal conc. in one replicate and placed the solution under ambient laboratory conditions and refrigerated conditions (2-8° C.), respectively, using 1% Linearity standard solutions). The solution was reanalyzed at different time intervals, such as 2 hours, 4 hours, 8 hours, 24 hours and 48 hours. For time points of less than 24 hours, solution stability is evaluated against fresh standards. The recovery of the aged solutions is evaluated. For sample solutions, a sample solution at a specified DAG nominal concentration was prepared in one replicate and placed under laboratory conditions at ambient temperature or under refrigerated conditions (2-8° C.). The solution was reanalyzed at different time intervals, such as 2 hours, 4 hours, 8 hours, 24 hours and 48 hours. For time points of less than 24 hours, solution stability is evaluated against fresh standards.

The mark [3] stands for this setting: ambient laboratory conditions, 0 h.
Setting [4] is: ambient laboratory conditions, 2 h.
[5] abbreviates: ambient laboratory conditions, 4 h.
[6] abbreviates: ambient laboratory conditions, 8 h.
Setting [7] is: ambient laboratory conditions, 25 h.
Where [8] appears, read: ambient laboratory conditions, 48 h.

On to `OC(C1CO1)C(O)C1CO1` (stereo not shown) [DAG, 1,2:5,6 dianhydrogalactitol], for which the results for the “Time the sample solutions can be stored” value in series [1] (2-8° C.) and in series [1] (ambient laboratory conditions) were “up to 48 hrs” and ≤ 52 h, respectively.

For the compound `OC[C@@H](O)[C@H](O)[C@H](O)[C@@H](O)CO` [Dulcitol, dulcitol], the results for the “Time the standard solutions can be stored” value in series [2] (2-8° C.) and in series [2] (ambient laboratory condition) were “up to 48 hrs” and “up to 52 hrs”, respectively. For the same compound, the Assay is on record as 109.233% in series [2] (2-8° C., 0 h); 109.076% in series [2] (2-8° C., 2 h); 109.164% in series [2] (2-8° C., 4 h); 108.302% in series [2] (2-8° C., 8 h); 109.056% in series [2] (2-8° C., 25 h); 108.947% in series [2] (2-8° C., 48 h). Further, the Assay in series [2] (setting [3]) is 109.944%; in series [2] (setting [4]), 109.778%; in series [2] (setting [5]) it was 109.059%; in series [2] (setting [6]), 108.590%; in series [2] (setting [7]), 110.553%; in series [2] (setting [8]), 108.986%. The Concentration in series [2] (2-8° C., 0 h) came to 0.0895 mg/mL; in series [2] (2-8° C., 2 h), 0.0894 mg/mL; in series [2] (2-8° C., 4 h), 0.0895 mg/mL; in series [2] (2-8° C., 8 h), 0.0888 mg/mL; in series [2] (2-8° C., 25 h) it was 0.0894 mg/mL; in series [2] (2-8° C., 48 h), 0.0893 mg/mL. Further, the Concentration was found to be 0.0898 mg/mL in series [2] (setting [3]); 0.0897 mg/mL in series [2] (setting [4]); 0.0891 mg/mL in series [2] (setting [5]); 0.0887 mg/mL in series [2] (setting [6]); 0.0903 mg/mL in series [2] (setting [7]); 0.0891 mg/mL in series [2] (setting [8]).
